The nature of series [1]: Blood concentration of drug after rectal administration of suppositories to fasted dogs (bioassay). The format is in vivo. To be noted: rectal suppository, 100 mg in potency. As for the experimental part: (§1) The suppositories were administered rectally to dogs or rabbits fasted for 24 hours. After administration, blood or urine sampling was conducted at times intervals and the drug concentration in blood or urinary drug excretion was estimated by determining the activity concentration by the bioassay method.

Series [2] in a line: Urinary excretion of drug after rectal administration of suppositories to fasted rabbits (bioassay). The format is in vivo. To be noted: rabbit, 100 mg, rectal suppository, 100 mg in potency, read-out: Urinary excretion (0-6 hours). As for the experimental part: as §1
The mark [3] stands for this setting: in vivo, base WITEPSOL H-5, additive Na caprate, 3%.
Where [4] appears, read: dog, blood, 100 mg, base WITEPSOL H-5, additive Na caprate, 3% NIKKOL MYS-40, 4%, read-out: AUC.

Consider ten molecules from patent publication EP0126348A2, “Composition for rectal administration and method of promoting rectal drug absorption” (priority 1983, dated 1984).

Like-named read-outs stand apart in the source and are kept apart here.

As for `NCC[C@H](O)C(=O)N[C@@H]1C[C@H](N)[C@@H](O[C@H]2O[C@H](CN)[C@@H](O)[C@H](O)[C@H]2O)[C@H](O)[C@H]1O[C@H]1O[C@H](CO)[C@@H](O)[C@H](N)[C@H]1O` [Amikacin], the area under the curve (AUC) (usually the area under the concentration-time curve, a measure of exposure) in series [1] (dog, in vivo, 100 mg, base WITEPSOL H-15, additive Na caprate, 3% NIKKOL BL-21, 3%, read-out: AUC) was 17900 ng·h/mL; in series [1] (dog, in vivo, 100 mg, base WITEPSOL H-15, additive None, read-out: AUC) it was 1000 ng·h/mL. Moreover, the dose excreted at 6 h in series [2] (in vivo, base WITEPSOL H-5, additive Na caprate, 3% NIKKOL MYS-40, 4%) was determined as 56%; in series [2] (in vivo, base WITEPSOL H-5, additive Na caprate, 3% Sodium carbonate, 4%), 55.5%; in series [2] (setting [3]) it was 35%.

Take `NC[C@H]1O[C@H](O[C@H]2[C@H](O)[C@@H](O[C@H]3O[C@H](CO)[C@@H](O)[C@H](N)[C@H]3O)[C@H](N)C[C@@H]2N)[C@H](N)[C@@H](O)[C@@H]1O` [Bekanamycin]: the dose excreted at 6 h in series [2] (urine, base WITEPSOL W-35, additive Glycerol monostearate, 3% Na caprate, 3%) worked out at 48.5%; in series [2] (urine, base WITEPSOL W-35, additive Na caprate, 3% Disodium phosphate,3%) it was 40%; in series [2] (urine, base WITEPSOL W-35, additive Na caprate, 3%) it was 30.1%.

Take `CO/N=C(\C(=O)N[C@@H]1C(=O)N2C(C(=O)O)=C(CSc3nc(=O)c(=O)[nH]n3C)CS[C@H]12)c1csc(N)n1` [Cefatriaxone]: the exposure (AUC) in series [1] (setting [4]) is 22200 ng·h/mL.

Take `CC(C)(O/N=C(\C(=O)N[C@@H]1C(=O)N2C(C(=O)[O-])=C(C[n+]3ccccc3)CS[C@H]12)c1csc(N)n1)C(=O)O` [Ceftazidime]: the AUC in series [1] (dog, in vivo, 100 mg, base WITEPSOL H-5, additive Na caprate, 3% Lysine, 4%, read-out: AUC) was 30100 ng·h/mL; in series [1] (dog, in vivo, 100 mg, base WITEPSOL H-5, additive Na caprate, 3% Na citrate, 4%, read-out: AUC), 27600 ng·h/mL; in series [1] (dog, in vivo, 100 mg, base WITEPSOL H-5, additive Na caprate, 3% Sodium carbonate, 4%, read-out: AUC) it was 29800 ng·h/mL; in series [1] (base WITEPSOL H-5, additive Na caprate, 3% Sodium carbonate, 4%) it was 30900 ng·h/mL.

On to `NC[C@@H]1CC[C@@H](N)[C@@H](O[C@H]2[C@H](O)[C@@H](O[C@H]3O[C@H](CO)[C@@H](O)[C@H](N)[C@H]3O)[C@H](N)C[C@@H]2N)O1` [Dibekacin], for which the AUC was found to be 1000 ng·h/mL in series [1] (dog, blood, 100 mg, base WITEPSOL H-5, additive NIKKOL MYS-40, 4%, read-out: AUC); 42000 ng·h/mL in series [1] (dog, blood, 100 mg, base WITEPSOL H-5, additive Na caprate, 3% NIKKOL BL-21, 4% Disodium hydrogen phosphate, 1%, read-out: AUC); 37000 ng·h/mL in series [1] (dog, blood, 100 mg, base WITEPSOL H-5, additive Na caprate, 3% NIKKOL BL-21, 4%, read-out: AUC); 39900 ng·h/mL in series [1] (dog, blood, 100 mg, base WITEPSOL H-5, additive Na caprate, 3% NIKKOL MYS-40, 4% Sodium carbonate, 4%, read-out: AUC); 27400 ng·h/mL in series [1] (setting [4]); 24400 ng·h/mL in series [1] (dog, blood, 100 mg, base WITEPSOL H-5, additive Na caprate, 3% Sodium carbonate, 4%, read-out: AUC). The exposure (AUC) in series [1] (dog, blood, 100 mg, base WITEPSOL H-5, additive Na caprate, 3%, read-out: AUC) was determined as 14400 ng·h/mL; in series [1] (dog, blood, 100 mg, base WITEPSOL H-5, additive None, read-out: AUC) it was 800 ng·h/mL.

Take `CNC[C@@H]1CC[C@@H](N)[C@@H](O[C@H]2[C@H](O)[C@@H](O[C@H]3OC[C@](C)(O)[C@H](NC)[C@H]3O)[C@H](N)C[C@@H]2N)O1` [Micronomicin]: the dose excreted at 6 h in series [2] (in vivo, base WITEPSOL H-5, additive Na caprate, 3% Arginine Na, 4%) was 48.2%; in series [2] (in vivo, base WITEPSOL H-5, additive Na caprate, 3% NIKKOL BL-21, 4%), 50.3%; in series [2] (setting [3]) it was 39.2%.

As for `CCN[C@@H]1C[C@H](N)[C@@H](O[C@H]2OC(CN)=CC[C@H]2N)[C@H](O)[C@H]1O[C@H]1OC[C@](C)(O)[C@H](NC)[C@H]1O` [Netilmicin], the dose excreted at 6 h in series [2] (urine, base WITEPSOL H-5, additive Na caprate, 3% Lysine, 4%) was 48%; in series [2] (urine, base WITEPSOL H-5, additive Na caprate, 3% NIKKOL TO-10M, 4%), 52.6%; in series [2] (urine, base WITEPSOL H-5, additive Na caprate, 3%) it was 40%.

`CN[C@@H]1[C@@H](O)[C@@H](O[C@@H]2[C@@H](O)[C@H](O[C@H]3OC(CN)=CC[C@H]3N)[C@@H](N)C[C@H]2N)OC[C@]1(C)O` [Sisomicin]: the dose excreted at 6 h in series [2] (urine, base WITEPSOL H-15, additive Na caprate, 2% NIKKOL BL-25, 4%) was found to be 51.6%; in series [2] (urine, base WITEPSOL H-15, additive Na caprate, 2%), 30.8%; in series [2] (urine, base WITEPSOL H-15, additive Na caprate, 3% Trisodium phosphate,4%), 55%.

`NC[C@H]1O[C@H](O[C@H]2[C@H](O)[C@@H](O[C@H]3O[C@H](CO)[C@@H](O)[C@H](N)[C@H]3O)[C@H](N)C[C@@H]2N)[C@H](N)C[C@@H]1O` [Tobramycin]: the dose excreted at 6 h was found to be 53.8% in series [2] (in vivo, base WITEPSOL W-35, additive Na caprate, 2% NIKKOL BL-9, 4%); 41.6% in series [2] (in vivo, base WITEPSOL W-35, additive Na caprate, 2%); 49.2% in series [2] (in vivo, base WITEPSOL W-35, additive Na caprate, 3% Disodium tatrate, 4% NIKKOL BL-9, 4%).

On to Fortimicin, for which the AUC was 14800 ng·h/mL in series [1] (base WITEPSOL H-5, additive Na caprate, 3%); 30000 ng·h/mL in series [1] (base WITEPSOL H-5, additive Na caprate, 3% NIKKOL BL-21, 4%); 21700 ng·h/mL in series [1] (base WITEPSOL H-5, additive Na caprate, 3% NIKKOL MYS-40, 4%); 21700 ng·h/mL in series [1] (base WITEPSOL H-5, additive Na caprate, 3% Sodium carbonate, 2%); 1200 ng·h/mL in series [1] (base WITEPSOL H-5, additive None).
